Results reported in US9096853B2, “Modified siRNA molecules incorporating 5-fluoro-2′-deoxyuridine residues to enhance cytotoxicity” (U.S. Department of Veterans Affairs, priority 2012, dated 2015).
Strand notation (5' to 3'): a small letter for the sugar, then the base; units joined by * are phosphorothioate-linked, units joined directly phosphodiester-linked; [ ] holds rarer units or linkages, { } end groups; capitals alone tell only the bases. [5FU] = 5-fluoro-2'-deoxyuridine (FdU); d = 2'-deoxy (DNA); r = 2'-OH (RNA)

Key:
[1] = test system: thymidylate synthase (TS) protein; assay: Immunoblot analysis of TS protein (free and ITC-bound), Odyssey quantitation; assay type: cell-based, human; details: RKO cells, 5 nM for 6 hr
[2] = test system: human colon cancer RKO cell line; assay: Cell proliferation assay (WST-1) in RKO cells; assay type: cell-based; details: for IC50: 6 hr exposure then 96 hr growth, mean ± S.D., at least 3 experiments; for effect on cell proliferation / cytotoxicity (in words): WST-1
Protocol: RKO cells were plated in 96-well plates at a density of 800 cells/well. On the following day, cells were incubated with ssiRNA/LF2000 complexes for 6 hr, after which time, the growth medium was replaced, and cells were grown for an additional 96 hr. Similarly, RKO cells were treated with FdU (#F0503, Sigma) for 6 hr followed by medium replacement and then allowed to grow for an additional 96 hr. Cell proliferation/viability was quantified by the WST-1 assay (Roche; Indianapolis, Ind.).

[3] = test system: human colon cancer RKO cell line; assay: Clonogenic assay in RKO cells; assay type: cell-based; details: for IC50: 6 hr exposure, colonies counted after 8 days, mean ± S.D., at least 3 experiments
Protocol: RKO cells were plated in 6-well plates at a density of 600 cells/well. On the following day, cells were transfected with ssiRNA/LF2000 complexes for 6 hr after which time, the growth medium was replaced. Similarly, FdU was added to wells for 6 hr followed by medium replacement. After 8 days, cell colonies were fixed with Trypan blue solution (75% methanol/25% acetic acid/0.25% trypan blue), washed, and air-dried before counting colonies >50 cells.

[4] = test system: thymidylate synthase (TS) protein; assay: Immunoblot analysis of TS protein (free and ITC-bound), Odyssey quantitation; assay type: cell-based, human; details: RKO cells, ssiRNA 1 nM, 48 hr; for Free TS (%) / ITC-Bound TS (%): normalized to free TS protein in mock-transfected cells (LF2000) set to 100%, mean ± S.D., 6 experiments
Protocol: FIGS. 1A-B illustrate the effect of FdU incorporation in ssiRNA on TS protein expression. RKO cells were transfected with TS6 ssiRNAs (1 nM) containing various 3′-overhangs. After 6 hr, the medium was replaced. After an additional 48 hr, cells were harvested and processed for immunoblot and qPCR analysis as described in the Materials and Methods section. (A) Representative blot from 4 experiments. (B) All qPCR values represent the mean±S.D. from at least 3 separate experiments performed in triplicate. The normalized amount of TS mRNA from mock-transfected cells (LF2000) was set to 1.0 and all other values compared against that value. ITC, inhibitory ternary complex;
Cells were plated at a density of 1.5×10^5 cells/well. On the following day, ssiRNAs were complexed with Lipofectamine 2000 (LF2000, Invitrogen) in serum-free RPMI-1640 medium and added to the plated cells. After 48 hr, cells were rinsed with PBS and scraped in cell lysis buffer (10 mM Tris pH7.4, 150 mM NaCl, 1 mM EDTA, 1% IGEPAL, 0.5% sodium deoxycholate, and 0.1% SDS) containing freshly added Protease Inhibitor Cocktail (Sigma; St. Louis, Mo.), 1 mM phenylmethylsulfonyl fluoride, and phosphatase inhibitors (Sigma). Lysates were sonicated and then centrifuged at 14,000 rpm for 30 min at 4° C. to remove debris. Cell lysates were stored at −80° C. for future use. For mRNA analysis, total RNA was extracted using Trizol (Invitrogen) and stored at −80° C. for future use.
Protein concentrations of cell lysates were determined using the DC Protein Assay (Bio-Rad; Hercules, Calif.). Equal amounts of protein (30 μg) from each cell lysate were resolved on SDS-PAGE using the method of Laemmli (Reference 19) and transferred onto 0.45 μm nitrocellulose membranes (Bio-Rad). Membranes were blocked and incubated overnight with primary antibodies at 4° C. The following antibodies were used in the experiments: anti-TS (Clone 4H4B1; Invitrogen), anti-TS (#5449; Cell Signaling; San Francisco, Calif.), anti-p21 Waf1/Cip1 (#2947; Cell Signaling), anti-p53 (#sc-126; Santa Cruz Biotechnology; Santa Cruz, Calif.), anti-PARP (#9542; Cell Signaling), anti-Fas (#4233; Cell Signaling), anti-phospho-histone H2A.X (Ser139) (#2577; Cell Signaling), anti-histone H2A.X (#7631; Cell Signaling), anti-phospho-ATM (pS1981; EPITOMICS Inc.; Burlingame, Calif.), anti-ATM (#A1106; Sigma), and anti-α-tubulin (EMD Biosciences; San Diego, Calif.). After multiple TBST washes (1×TBS, 0.1% Tween-20), membranes were incubated with corresponding horseradish peroxidase-conjugated secondary antibodies (Bio-Rad) for 1 hr at room temperature. Proteins were detected by the enhanced chemiluminescence method (SuperSignal West Pico substrate; Pierce; Rockford, Ill.). Quantitation of signal intensities was performed by densitometry on a Xerox scanner using NIH IMAGEJ software.
Immunoblots were prepared as described above. After incubation with anti-TS polyclonal antibody, membranes were blocked with the Odyssey blocking buffer and incubated with IRDye 800CW goat anti-rabbit antibody (LI-COR Biosciences; Lincoln, Nebr., USA) according to the manufacturer instructions. The fluorescent signal was detected and quantified using the Odyssey infrared imaging system (LI-COR).

[5] = test system: TS mRNA sequence in opposite orientation targeted by the sense (passenger) strand; assay: Luciferase assay, vector with TS6 target site for the sense strand; assay type: cell-based, human; details: RKO cells, ssiRNA 0.1 nM, 24 hr
Protocol: (§1) FIG. 3 illustrates the effect of 3′-end modification on ssiRNA strand selection. RKO cells were transfected with luciferase vectors (including the TS6 target site for either the antisense (open bars) or sense strand (hatched bars)) in combination with ssiRNAs containing different 3′-end overhangs. After 24 hr, cells were harvested and luciferase activity was determined as described in the Materials and Methods section. Firefly/renilla luciferase activity from vector-alone transfection was normalized to 100%. All values represent the mean±S.D. from at least 4 separate experiments performed in duplicate;
(§2) FIGS. 4A-C illustrate the effect of 3′-end dU incorporation on ssiRNA strand selection. RKO cells were transfected with various TS6 ssiRNAs (1 nM) for 6 hr. After an additional 48 hr, cells were harvested for immunoblot (A) and qPCR (B) analysis. (C) Luciferase vectors (containing the siRNA target site for either the sense or antisense strand) were transfected into RKO cells in combination with different ssiRNAs. After 24 hr, cells were harvested and luciferase activity was determined as described in the Materials and Methods section. Luciferase activity from vector-alone transfection was normalized to 100%. All values represent the mean±S.D. from at least 4 separate experiments performed in duplicate;
(§3) A DNA oligonucleotide corresponding to the TS6 siRNA target sequence (TS mRNA nt 1058-1077: 5′-[…]-3′- SEQ ID NO: 23) was annealed to its complimentary antisense sequence and ligated into the pGL3-Promoter plasmid (Promega; Madison, WI) at restriction sites Hind III and Nco I. The luciferase mRNA expressed from this plasmid was targeted by the antisense strand of TS6 siRNA. A second plasmid was constructed with the TS mRNA sequence inserted in the opposite orientation so that it could be targeted by the sense or passenger strand of TS6 siRNA. […] After 24 hr, cells were washed with PBS, lysed in 1×PLG buffer, and firefly and renilla luciferase levels were determined by the Dual-Luciferase™ Reporter Assay system (Promega). […]

[6] = test system: TS6 siRNA target sequence (TS mRNA nt 1058-1077) targeted by the antisense strand; assay: Luciferase assay, vector with TS6 target site for the antisense strand; assay type: cell-based, human; details: RKO cells, ssiRNA 0.1 nM, 24 hr
Protocol: as §1, §2, §3

O=c1[nH]cc(F)c(=O)[nH]1 [5-FU, 5-fluorouracil, reference compound]
formation of the ITC after incubation with 5-FU [1]: did not result in formation of the ITC

O=c1[nH]c(=O)n([C@H]2C[C@H](O)[C@@H](CO)O2)cc1F [FdU (TS inhibitor), 5-fluoro-2′-deoxyuridine]
IC50 ([2]; Homo sapiens): 6.93 ± 2.08 nM
IC50 ([3]; Homo sapiens): 7.42 ± 1.33 nM

Mis-dU/dA: unmodified mismatched control ssiRNA; SEQ ID NO: 19 and 20 (chain 1 GGAUACUGCCAAUCUCUAGGUUUUU; chain 2 CCUAGAGAUUGGCAGUAUCCAAAAA; chain 1: sugars from the 5' end r20 d5, backbone and T or U not given here; chain 2: sugars from the 5' end r20 d5, backbone not given here) [reference compound]
effect on cell proliferation / cytotoxicity (in words) [2]: no effect
effect on clonogenic growth (in words) [3]: no effect
Free TS (%) [4]: 90.1 ± 14.0%

TS6-1xF-dU/dA: ssiRNA with a single FdU residue at the 4th position in the sense strand; SEQ ID NO: 5 and 6 (chain 1 GGAUAUUGUCAGUCUUUAGGUUUUU; chain 2 CCUAAAGACUGACAAUAUCCAAAAA; FdU at position 4 of sense strand, chemistry not fully specified)
enhancement of IC50 versus TS6-dU/dA, cell growth (WST-1) assay [2]: ~30 fold
IC50 [2]: 2.85 ± 0.83 nM
fold lower IC50 (greater potency) versus TS6-dU/dA, clonogenic assay [3]: 5 fold
IC50 [3]: 0.34 ± 0.08 nM
effect on TS protein expression (in words) [4]: significantly inhibited
Free TS (%) [4]: 27.3 ± 8.3%
ITC-Bound TS (%) [4]: 4.4 ± 2.6%

TS6-2xF-dU/dA: ssiRNA with FdU on positions 16 and 18 of the antisense strand; SEQ ID NO: 17 and 18 (chain 1 GGAUAUUGUCAGUCUUUAGGUUUUU; chain 2 CCUAAAGACUGACAAUAUCCAAAAA; chain 1: sugars from the 5' end r20 d5, backbone not given here; chain 2: sugars from the 5' end rrrrrrrrrrrrrrrdrdrrddddd, [5FU] at 16, 18, backbone not given here)
Free TS (%) [4]: 54.1 ± 14.1%
ITC-Bound TS (%) [4]: 15.4 ± 9.5%

TS6-3xF-dU/dA: ssiRNA with FdU replacing U at positions 10, 16 and 18 in the antisense strand; SEQ ID NO: 15 and 16 (chain 1 GGAUAUUGUCAGUCUUUAGGUUUUU; chain 2 CCUAAAGACUGACAAUAUCCAAAAA; FdU at antisense positions 10, 16, 18, chemistry not fully specified)
Free TS (%) [4]: 73.6 ± 14.7%
ITC-Bound TS (%) [4]: 26.2 ± 10.7%

TS6-FdU/FdU: TS-targeted ssiRNA, both 3′-ends modified with FdU; SEQ ID NO: 13 and 14 (chain 1 rGrGrArUrArUrUrGrUrCrArGrUrCrUrUrUrArGrGd[5FU]d[5FU]d[5FU]d[5FU]d[5FU]; chain 2 rCrCrUrArArArGrArCrUrGrArCrArArUrArUrCrCd[5FU]d[5FU]d[5FU]d[5FU]d[5FU])
IC50 [2]: 0.77 ± 0.12 nM
IC50 [3]: 0.43 ± 0.16 nM
reduced efficacy as compared to TS6-FdU/dA, clonogenic assay ([3]; p=0.01): 2 fold

TS6-UU: standard TS6 siRNA with two uridine overhangs, TS-targeted; SEQ ID NO: 1 (sense) and 2 (antisense) (sense GGAUAUUGUCAGUCUUUAGGUU; antisense CCUAAAGACUGACAAUAUCCUU; RNA, backbone not given here)
sense strand targeting, luciferase (in words) [5]: suppressed
antisense strand targeting, luciferase (in words) [6]: suppressed

TS6-dA/FdU: TS-targeted ssiRNA with FdU modification of the 3′-end of antisense strand; SEQ ID NO: 11 and 12 (chain 1 GGAUAUUGUCAGUCUUUAGGAAAAA; chain 2 CCUAAAGACUGACAAUAUCCUUUUU; chain 1: sugars from the 5' end r20 d5, backbone not given here; chain 2: sugars from the 5' end r20 d5, [5FU] at 21, 22, 23, 24, 25, backbone not given here)
IC50 [2]: 1.27 ± 0.32 nM
effect on cell proliferation / cytotoxicity (in words) [2]: significantly less effective
effect on clonogenic growth (in words) [3]: significantly less effective
IC50 [3]: 0.4 ± 0.2 nM
sense strand targeting, luciferase (in words) [5]: enhanced
less targeting by the antisense strand [6]: 2 fold
effect on TS protein expression (in words) [4]: reduced the ability
Free TS (%) [4]: 48.0 ± 18.6%
ITC-Bound TS (%) [4]: 30.6 ± 15.6%
